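Each compound was tested at five concentrations against cells in 96-well plates for 48 hours. TGI: concentration producing complete growth inhibition.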
Columns and labels:
Experiment in all cases: DTP human tumour cell line panel, 48 h
HL-60(TB) leukemia = tested on: HL-60(TB) leukemia
A549 NSCLC = tested on: A549 NSCLC
786-0 renal = tested on: 786-0 renal
KM12 colon = tested on: KM12 colon
TK-10 renal = tested on: TK-10 renal
SNB-75 CNS = tested on: SNB-75 CNS
EKVX NSCLC = tested on: EKVX NSCLC
MDA-MB-231 breast = tested on: MDA-MB-231 breast
MOLT-4 leukemia = tested on: MOLT-4 leukemia
HT29 colon = tested on: HT29 colon
HCT-116 colon = tested on: HCT-116 colon
CAKI-1 renal = tested on: CAKI-1 renal
RXF 393 renal = tested on: RXF 393 renal
MALME-3M melanoma = tested on: MALME-3M melanoma

Row | Structure (SMILES) | TGI (HL-60(TB) leukemia) [µM] | TGI (A549 NSCLC) [µM] | TGI (786-0 renal) [µM] | TGI (KM12 colon) [µM] | TGI (TK-10 renal) [µM] | TGI (SNB-75 CNS) [µM] | TGI (EKVX NSCLC) [µM] | TGI (MDA-MB-231 breast) [µM] | TGI (MOLT-4 leukemia) [µM] | TGI (HT29 colon) [µM] | TGI (HCT-116 colon) [µM] | TGI (CAKI-1 renal) [µM] | TGI (RXF 393 renal) [µM] | TGI (MALME-3M melanoma) [µM]
1 | O=c1oc2ccccc2c(O)c1C(c1ccc2ccccc2c1)c1c(O)c2ccccc2oc1=O | 75.5 | > 100 | 74.7 | 40 | > 100 | 48.7 | > 100 | 47.1 | 55.1 | 33.8 | > 100 | 54.7 | > 100 | 57.5
2 | COc1ccc(OC)c2c(=O)cc(-c3ccccc3)[nH]c12 | > 100 | > 100 | > 100 | > 100 | > 100 | > 100 | > 100 | > 100 | > 100 | > 100 | > 100 |  | > 100 | > 100
3 | CC(=O)/C(=C/N1C(=O)CC(=O)NC1=S)C(=O)Nc1ccccc1C | > 100 | > 100 | 50.8 | > 100 | > 100 | > 100 | > 100 | > 100 | > 100 | 53.5 | > 100 | > 100 | > 100 | 
4 | NC(=Nc1ccc(Cl)c(Cl)c1)c1ccccc1N | 52 | > 100 | > 100 | > 100 | > 100 | 75.7 | > 100 | > 100 | 69.3 | > 100 | 57.1 | > 100 | 75.9 | 45.9
5 | CC1=CC[C@@]2(C)[C@@H]([C@@H]1C)[C@H]1CC[C@@H]3[C@@]4(C)CC[C@H](O)C(C)(C)[C@@H]4CC[C@@]3(C)[C@]1(C)C[C@@H]2O | > 100 | > 100 | 42.2 | > 74.8 | > 70.7 | > 100 | 23.6 | 20.2 | > 70.4 | 46 | > 58 | > 83.2 | 28.5 | > 68.7
6 | COc1cc(/C=C2\CCC(C)c3c2nc(N)c(C#N)c3-c2cc(OC)c(OC)c(OC)c2)cc(OC)c1OC (stereo not drawn) | > 100 | > 100 | > 100 | > 100 | > 100 | 15 | > 100 | > 100 | > 100 | > 100 | > 100 | > 100 | > 100 | 
7 | O=S(=O)([N-]c1nc2ccccc2nc1-[n+]1ccccc1)c1ccccc1 | 72.6 | > 100 | > 100 | > 100 | > 100 | > 100 | > 100 | 84.8 | 95.4 | > 100 | > 100 | > 100 | > 100 | > 100
8 | COC(=O)C1=C(C(=O)OC)C(C(=O)c2ccccc2)N2N=C(c3ccc(Cl)cc3)C=CC12 (stereo not drawn) | > 100 | > 100 | > 100 | > 100 | > 100 |  | > 100 | > 100 | > 100 | > 100 | > 100 | > 100 | > 100 | 83.7
9 | COc1ccc(-c2cc(=O)c3c(O)c(OC)c(O)cc3o2)cc1O | 14.2 | > 100 | > 52.7 | 18.6 | > 100 | 60 | > 87.1 | > 100 | 20.7 | > 61.8 | 32.4 | > 73.2 | > 64.8 | > 25.8
10 | Cc1nc2c(n1CCCl)C(=O)c1ccccc1C2=O | 83.8 | > 100 | > 100 | > 100 | 78.5 | > 100 | > 100 | 56.5 | 78 | 44.7 | 36.6 |  | 46.2 | 19.2
11 | CC1=C(C#N)C(=O)N(/N=C/c2ccc(Cl)cc2)C(=O)/C1=c1\o/c(=C2/C(=O)N(/N=C/c3ccc(Cl)cc3)C(=O)C(C#N)=C2C)c2nccnc12 | > 100 | > 100 | > 100 | > 100 |  | 85.3 | > 100 | > 100 | > 100 | > 100 | > 100 | > 100 | > 100 | > 100

— PubChem BioAssay (NCI)
